Experimental data taken from ChEMBL document CHEMBL1201862, “PubChem BioAssay data set” (2004).
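Cells were grown in 96-well plates and exposed to each compound for 48 hours at five concentrations; endpoints were interpolated linearly between bracketing concentrations, or set to the highest concentration if not reached. GI50 is the concentration that inhibits growth by half.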 Activity calls are given as the source filed them. Rule as the data show it: active = GI50 up to about 1.1 µM and inactive = higher.

Each compound was assayed on MDA-N (assay: DTP human tumour cell line panel, 48 h).
With `O=C(O)CC1(CC(=O)O)Nc2ccccc2SC1=O` the GI50 was > 100 µM (inactive).
With `COC(=O)Cc1c(-c2[nH]c3ccccc3c2CC(=O)OC)[nH]c2ccccc12` the GI50 was > 53.8 µM (inactive).
`CCN(CC)C(=S)N/N=C1\C(=O)Nc2ccccc21` was tested, and the GI50 was 2.01 µM (inactive).
In the case of `Cc1cn(C2OC(CO)C(O)C2F)c(=O)[nH]c1=O` (stereo not drawn), the GI50 is reported as > 100 µM (inactive).
For `Cc1cc(N)c2cc(NC(=O)Nc3ccc4nc(C)cc(N)c4c3)ccc2n1`, the GI50 was > 100 µM (inactive).
`COC(=O)C1=NN2c3ccccc3C(=O)OCCC2C1` (stereo not drawn) was tested, and the GI50 was > 100 µM (inactive).
`C[C@]12CC(c3ccccc3O1)C(C(=O)NC13CC4CC(CC(C4)C1)C3)C(=O)N2` (stereo partly drawn) was tested, and the GI50 was 18.1 µM (inactive).
For `CCOC(=O)NC(NC1=NCCS1)(C(=O)OCC)C(F)(F)F` (stereo not drawn), the GI50 was > 100 µM (inactive).
In the case of `COC(=O)C(=O)C(C(=O)C(=O)Nc1ccc(Cl)c(Cl)c1)c1nc2ccc(C(=O)c3ccccc3)cc2nc1O` (stereo not drawn), the GI50 is reported as 42.9 µM (inactive).
For `CN1c2ccccc2C2=C(c3ccccc3)CC[C@@H](C(=O)N3C4CC5CC[C@@]4(CS3(=O)=O)C5(C)C)[C@@H]21` (stereo partly drawn), the GI50 was > 100 µM (inactive).
With `COc1ccc(-c2cn3c(nc4ccccc43)c(/C=C/c3cccs3)n2)cc1` the GI50 was 7.53 µM (inactive).
With `O=C1NC(Nc2ccccc2Cl)=N/C1=C\c1c(Cl)cccc1Cl` the GI50 was 16.5 µM (inactive).
`NC(=S)NC/C=C/Cl` was tested, and the GI50 was > 100 µM (inactive).
In the case of `COc1ccc2nc3cc(Cl)ccc3c(Nc3ccc(O)c(CN4CCN(C)CC4)c3)c2c1`, the GI50 is reported as 1.67 µM (inactive).
With `O=[N+]([O-])C(=C(N1CCOCC1)N1CCOCC1)/C(Cl)=C(\Cl)Br` the GI50 was 26.4 µM (inactive).
`O=C(O)c1nc2ccc(Cl)cc2[nH]c1=O` was tested, and the GI50 was > 100 µM (inactive).
In the case of `OC1(c2ccccc2)C2CC=CC2C1(c1ccccc1)c1ccccc1` (stereo not drawn), the GI50 is reported as 25 µM (inactive).
`CCN(CC)CCN(C)CCc1ccc(Br)cc1` was tested, and the GI50 was 29.7 µM (inactive).
For `O=C1C=C(C2=C(C3=CC(=O)c4ccccc4C3=O)C(=O)c3ccccc3C2=O)C(=O)c2ccccc21`, the GI50 was 2.25 µM (inactive).
For `CC(=O)Nc1cc(Cl)cc(Cl)c1O`, the GI50 was > 100 µM (inactive).
In the case of `NC1Cc2ccccc2OC1=O` (stereo not drawn), the GI50 is reported as > 10 µM (inactive).
`Cc1nn(C(=O)Cc2ccccc2)c2c1C(c1ccc([N+](=O)[O-])cc1)SC(=N)N2` (stereo not drawn) was tested, and the GI50 was > 100 µM (inactive).
In the case of `COC(=O)c1ccccc1CC1Cc2cc3c(cc2C1)CCC3`, the GI50 is reported as 47.8 µM (inactive).
With `COc1ccc(C2CC(C)(O)Oc3cc4c(cc32)OCO4)cc1` (stereo not drawn) the GI50 was 10.5 µM (inactive).
In the case of `c1ccc(CN2CCC3(CC2)SSC2(CCN(Cc4ccccc4)CC2)S3)cc1`, the GI50 is reported as 44.7 µM (inactive).
In the case of `Nc1ncc2c(n1)-c1ccccc1OC2N1CCCCC1` (stereo not drawn), the GI50 is reported as > 100 µM (inactive).
For `COP(=O)(OC)C12CCOCCN1c1ccccc1C2=O` (stereo not drawn), the GI50 was > 100 µM (inactive).
In the case of `Cc1nnc(SCc2nc(C#N)c(C#N)nc2CSc2nnc(C)s2)s1`, the GI50 is reported as 17.6 µM (inactive).
With `CCOC(=O)Nn1cnnc1C` the GI50 was > 100 µM (inactive).
For `Nc1nc(N)c2cc(-c3cc4ccccc4[nH]3)ccc2n1`, the GI50 was 19.8 µM (inactive).
`COc1c(F)c(F)c(C(=O)/C=C2\Nc3ccccc3NC2=O)c(F)c1F` was tested, and the GI50 was > 10 µM (inactive).
For `CCCCCCCCCCC/C=C(/C(=O)CCCO[Si](C)(C)C(C)(C)C)C(=O)OC`, the GI50 was > 100 µM (inactive).
In the case of `O=C(OCc1ccccc1)C1(N2CN(C3(C(=O)OCc4ccccc4)CCCC3)CN(C3(C(=O)OCc4ccccc4)CCCC3)C2)CCCC1`, the GI50 is reported as > 10 µM (inactive).
In the case of `N#CC1C(=S)NC(c2ccccc2)=CC12CCCCC2` (stereo not drawn), the GI50 is reported as 31.5 µM (inactive).
For `O=C(/C=C/c1ccc(C(F)(F)F)cc1)c1c([O-])on[n+]1-c1ccccc1`, the GI50 was 1.84 µM (inactive).
For `Clc1cc(Cl)ncn1`, the GI50 was > 100 µM (inactive).
In the case of `CCOc1cc(NC(C)=O)ccc1C(=O)NNS(=O)(=O)c1ccc(Cl)cc1Cl`, the GI50 is reported as 10.6 µM (inactive).
`CCOc1cc2c(cc1O)C=C[C@@H]1[C@@H]2CC[C@]2(C)[C@@H](O)CC[C@@H]12` was tested, and the GI50 was 0.33 µM (active).
For `NS(=O)(=O)c1nnc(NS(=O)(=O)c2cccc3cccnc23)s1`, the GI50 was > 100 µM (inactive).
In the case of `c1ccc(/N=C2/SC(c3ccccc3)(c3ccccc3)c3ccccc32)cc1`, the GI50 is reported as > 100 µM (inactive).
For `c1ccc(NNN2NC(c3ccccc3)C2c2ccccc2)cc1` (stereo not drawn), the GI50 was > 100 µM (inactive).
For `NC(C(=O)O)c1cc(O)no1` (stereo not drawn), the GI50 was > 100 µM (inactive).
With `CN(C)CCNc1ccc([N+](=O)[O-])c2sc3ccccc3c(=O)c12` the GI50 was 4.92 µM (inactive).
